Test results published in patent US5563121A, “Peptide linkage unit” (priority 1994, dated 1996).
pKi: −log10 of the molar value. *1 amine or outer side, *2 acyl side, *3 side chain or, on linkers, in order; H or OH if unused. Where a SMILES comes first, the peptide text is derived from it. [ ]: non-standard residue; d: D form. X1 = O=C([C@@H]1CCCN1CP(=O)(O)C(Cc1ccccc1)N[*:1])[*:2]

Molecular target: T1, Synthetic HIV-1 proteinase (Human immunodeficiency virus type 1 group M subtype B, UniProt P03369)
T1 construct: Synthetic HIV-1 proteinase; made in house; host or cells: chemical synthesis (no expression host); gift of Dr. Stephen Kent, The Scripps Research Institute
Assay: HPLC assay of HIV-1 PR inhibition
Assay type: biochemical
Conditions: HIV substrate IV, pH 6.2, 25° C.
Method: Typical reactions were carried out at room temperature (25° C.) in 150 μl total volumes of 100 mM MES buffer, pH 6.2, containing 1 mM ethylenediaminetetra-acetic acid (EDTA) and 2 mM dithiothreitol (DTT) plus 0.1 percent (v/v) Triton X-100.
Synthetic HIV-1 proteinase [0.5 μg, obtained from Dr. Stephen Kent of The Scripps Research Institute; see Cell, 54:363-368 (July 29, 1988)] was first incubated in buffer with (or without) various concentrations of "inhibitor(s)" for 30 minutes at 25° C. The proteinase reaction was then initiated by the addition of HIV substrate IV (Bachem Bioscience Inc.) at fixed concentrations. HIV Substrate IV has the sequence
Lys-Ala-Arg-Val-Nle-p-NO2 Phe-Glu-Ala-Nle-NH2 (SEQ ID NO: 32).
At three appropriate times (normally 15, 30 and 45 minutes) the hydrolysis was stopped by adding a 40 μl aliquot from the reaction to 40 μl of a prepared quench solution. The quench solution was 1:4 acetonitrile:water (3 percent trifluoroacetic acid; TFA) and contained 150 μM m-toluic acid which served as an HPLC standard. […] Reaction progress was monitored by following the increasing absorbance (peak height) of the substrate IV cleavage product detected at […].

CC[C@H](C)[C@H](NC(=O)[C@@H]1CCCN1CP(=O)(O)C(Cc1ccccc1)NC(=O)[C@H](CC(N)=O)NC(=O)[C@H](CC(C)C)NC(=O)[C@H](CO)NC(C)=O)C(=O)N[C@H](C(=O)OC)C(C)C (stereo partly drawn) [Compound 6, CH3 C(O)-Ser-Leu-Asn-Phe.psi.[PO2^- CH2 NH^+ ]Pro-Ile-Val-OCH3] (Ac-SLN[X1]IV-OMe)
pKi (one stereoisomer of Compound 6): ~3.22
pKi (the other (more active) isomer of Compound 6): ~8.00
